Like-named read-outs stand apart in the source and are kept apart here.
Legend:
giant foxtail = experiment: Test B pre-/postemergence herbicide test; assay type: in vivo, Setaria faberi; conditions: for pest or weed control at 125 g/ha / pest or weed control at 500 g/ha: Setaria faberi, 336 h
Method in brief: (§1)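 Plants compared with untreated controls 13–15 days post-treatment and given a visual 0–100 injury score. Applications: preemergence to seeds; postemergence at 1- to 4-leaf (2–18 cm); paddy species flooded, 2-leaf stage. Vehicle non-phytotoxic, surfactant included.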

[1] = system: smallflower umbrella sedge; experiment: Test C flooded paddy test; assay type: in vivo, Cyperus difformis; conditions: for Plant response rating, Sedge, Umbrella: 500 g ai/ha, visual rating after 12 to 14 days
pigweed = experiment: Test B pre-/postemergence herbicide test; assay type: in vivo, Amaranthus retroflexus; conditions: for pest or weed control at 125 g/ha / pest or weed control at 500 g/ha: Amaranthus retroflexus, 336 h
Method in brief: as §1

[2] = 125 g ai/ha, 0 = no effect, 100 = complete control, preemergence
[3] = 500 g ai/ha, visual rating 0-100, 0 no effect, 100 complete control, preemergence
[4] = postemergence, 125 g ai/ha, visual rating, scale 0 (no effect) to 100 (complete control)
[5] = postemergence, 500 g ai/ha, visual rating, scale 0 (no effect) to 100 (complete control)
[6] = 62 g ai/ha, scale 0 to 100 (0 no effect, 100 complete control)
[7] = 125 g ai/ha, scale 0 to 100 (0 no effect, 100 complete control)
[8] = 250 g ai/ha, scale of 0 to 100, 0 is no effect, 100 is complete control
[9] = scale 0 to 100 (0 no effect, 100 complete control)
[10] = preemergence, 125 g ai/ha, 0 to 100 scale, 0 is no effect, 100 is complete control
[11] = 125 g ai/ha, visual rating, scale 0 (no effect) to 100 (complete control), postemergence
[12] = 500 g ai/ha, visual rating, 0 = no effect, 100 = complete control, preemergence
[13] = postemergence, 500 g ai/ha, scale 0 to 100, 0 is no effect, 100 is complete control
[14] = Postemergence, 500 g ai/ha, visual rating after 13 to 15 days, scale 0 (no effect) to 100 (complete control)
[15] = Preemergence, 500 g ai/ha, scale 0 to 100
[16] = 125 g ai/ha, scale of 0 to 100, 0 is no effect, 100 is complete control
[17] = 125 g ai/ha, 0 is no effect, 100 is complete control, preemergence
[18] = Postemergence, 500 g ai/ha, scale 0 (no effect) to 100 (complete control)
[19] = postemergence, 125 g ai/ha, scale 0 to 100
[20] = post-emergence, postemergence, 500 g ai/ha, scale 0 to 100, 0 is no effect, 100 is complete control, read-out: Foxtail, Giant plant response rating
[21] = pre-emergence, 500 g ai/ha, visual rating, 0 = no effect, 100 = complete control, read-out: Plant response rating, Foxtail, Giant
[22] = post-emergence, postemergence, 500 g ai/ha, scale 0 to 100, 0 is no effect, 100 is complete control, read-out: Pigweed plant response rating

SMILES | Foxtail, Giant plant response rating (0 to 100 scale) (giant foxtail; [2]) | Plant response rating, Foxtail, Giant (giant foxtail; [3]) | Foxtail, Giant plant response rating (giant foxtail; [4]) | Foxtail, Giant plant response rating (giant foxtail; [5]) | Sedge, Umbrella plant response rating [1, 6] | Sedge, Umbrella plant response rating [1, 7] | Sedge, Umbrella plant response rating [1, 8] | Plant response rating, Sedge, Umbrella [1, 9] | Pigweed plant response rating (0 to 100 scale) (pigweed; [2]) | Plant response rating, Pigweed (pigweed; [3]) | Pigweed plant response rating (pigweed; [4]) | Pigweed plant response rating (pigweed; [5]) | Plant response rating, Foxtail, Giant (giant foxtail; [10]) | Plant response rating, Pigweed (pigweed; [10]) | other results
CCc1nc(C(C)(C)C)sc1C(=O)Nc1cccc(C(=O)NCCF)c1 [Compound 209] | 30 | 60 | 20 | 30 | 55 | 55 | 65 | 80 | 70 | 100 | 30 | 40 |  |  | 
CCn1nc(C(C)(C)C)cc1C(=O)Nc1cc(C(=O)NCC2CC2)ccn1 [Compound 155] |  | 90 | 20 | 30 | 0 | 30 | 65 | 75 |  | 100 | 60 | 100 | 20 | 100 | 
CCn1nc(C(C)(C)C)cc1C(=O)Nc1cncc(C(=O)N2CC=CC2)n1 [Compound 290] | 10 |  |  |  |  | 25 | 65 | 70 | 0 |  |  |  |  |  | Foxtail, Giant plant response rating (giant foxtail; [11]): 20; Plant response rating, Foxtail, Giant (giant foxtail; [12]): 80; Foxtail, Giant plant response rating (giant foxtail; [13]): 60; Sedge, Umbrella plant response rating ([1]; 62 g ai/ha, scale 0 to 100): 0; Pigweed plant response rating (pigweed; [11]): 10; Plant response rating, Pigweed (pigweed; [12]): 100; Pigweed plant response rating (pigweed; [13]): 10
CCc1nc(C(C)(C)C)sc1C(=O)Nc1cccc(C(=O)NC(C)(C)C)n1 [Compound 216] | 0 |  | 0 | 20 | 20 | 30 | 30 | 50 | 0 |  | 0 | 20 |  |  | Plant response rating, Foxtail, Giant (giant foxtail; [12]): 60; Plant response rating, Pigweed (pigweed; [12]): 90
CCn1nc(C(C)(C)C)cc1C(=O)Nc1cccc(C(=O)NC(C)C)c1 [Compound 51] |  |  | 0 |  | 45 |  | 65 | 80 |  |  | 80 |  | 100 | 100 | Plant response rating, Foxtail, Giant (giant foxtail; [14]): 0; Foxtail, Giant plant response rating (giant foxtail; [15]): 100; Sedge, Umbrella plant response rating [1, 16]: 50; Plant response rating, Pigweed (pigweed; [14]): 100; Pigweed plant response rating (pigweed; [15]): 100
CCOc1cccc(NC(=O)c2cc(C(C)(C)C)nn2CC)c1 [Compound 136] |  | 100 | 10 | 10 | 65 | 80 | 85 | 85 |  | 100 | 60 | 90 | 80 | 100 | 
CCn1nc(C(C)(C)C)cc1C(=O)Nc1cccc(C(C)=O)c1 [Compound 122] |  | 80 | 10 | 20 | 50 |  | 70 | 80 |  | 80 | 0 | 10 | 50 | 70 | Sedge, Umbrella plant response rating [1, 16]: 60
CCn1nc(C(C)(C)C)cc1C(=O)Nc1cccc(OS(=O)(=O)CC)c1 [Compound 408] |  |  |  |  |  | 80 | 85 | 85 |  |  |  |  |  |  | Plant response rating (0 to 100 scale), Foxtail, Giant (giant foxtail; [17]): 40; Foxtail, Giant plant response rating (giant foxtail; [18]): 50; Foxtail, Giant plant response rating (giant foxtail; [19]): 30; Sedge, Umbrella plant response rating ([1]; 62 g ai/ha, scale 0 to 100): 60; Plant response rating (0 to 100 scale), Pigweed (pigweed; [17]): 100; Pigweed plant response rating (pigweed; [18]): 100; Pigweed plant response rating (pigweed; [19]): 90
CCOC(=O)c1cccc(NC(=O)c2nn(C(C)(C)C)nc2CC)c1 [Compound 360, ethyl 3-[[[2-(1,1-dimethylethyl)-5-ethyl-2H-1,2,3-triazol-4-yl]carbonyl]amino]benzoate] |  |  |  |  |  |  |  |  |  |  |  |  |  |  | Plant response rating (0 to 100 scale), Foxtail, Giant (giant foxtail; [17]): 50; pest or weed control at 125 g/ha (giant foxtail; post-emergence, 125 g ai/ha, visual rating, scale 0 (no effect) to 100 (complete control), read-out: Foxtail, Giant plant response rating): 30%; pest or weed control at 500 g/ha (giant foxtail; [20]): 50%; pest or weed control at 500 g/ha (giant foxtail; [21]): 90%; Plant response rating (0 to 100 scale), Pigweed (pigweed; [17]): 20; pest or weed control at 125 g/ha (pigweed; post-emergence, 125 g ai/ha, visual rating, scale 0 (no effect) to 100 (complete control), read-out: Pigweed plant response rating): 30%; pest or weed control at 500 g/ha (pigweed; [22]): 40%; pest or weed control at 500 g/ha (pigweed; pre-emergence, 500 g ai/ha, visual rating, 0 = no effect, 100 = complete control, read-out: Plant response rating, Pigweed): 50%
CCN(CC)C(=O)c1cncc(NC(=O)c2cc(C(C)(C)C)nn2CC)c1 [Compound 261, 5-[[[3-(1,1-dimethylethyl)-1-ethyl-1H-pyrazol-5-yl]carbonyl]amino]-N,N-diethyl-3-pyridinecarboxamide] |  |  |  |  |  |  |  |  |  |  |  |  |  |  | pest or weed control at 125 g/ha (giant foxtail; post-emergence, postemergence, 125 g ai/ha, visual rating, scale 0 (no effect) to 100 (complete control), read-out: Foxtail, Giant plant response rating): 0%; pest or weed control at 500 g/ha (giant foxtail; [20]): 0%; pest or weed control at 125 g/ha (giant foxtail; pre-emergence, 125 g ai/ha, 0 = no effect, 100 = complete control, read-out: Foxtail, Giant plant response rating (0 to 100 scale)): 0%; pest or weed control at 500 g/ha (giant foxtail; [21]): 0%; pest or weed control at 125 g/ha (pigweed; post-emergence, postemergence, 125 g ai/ha, visual rating, scale 0 (no effect) to 100 (complete control), read-out: Pigweed plant response rating): 20%; pest or weed control at 500 g/ha (pigweed; [22]): 70%; pest or weed control at 125 g/ha (pigweed; pre-emergence, 125 g ai/ha, 0 = no effect, 100 = complete control, read-out: Pigweed plant response rating (0 to 100 scale)): 0%

— patent US20060069132A1, “Azolecarboxamide herbicides” (priority 2004, published 2006)
